# Test system: M. abscessus clinical isolates
# Assay: Antibiotic resistance profile of clinical isolates
substance,measurement,value
Trimethoprim/Sulfa,Antibiotic Susceptibility,1
